Values after ≈ are worked out from the molar mass of the structure shown. Active and inactive are the calls of the source. No cut-off for these calls is given here.
Tests used:
[1] = tested on: Human immunodeficiency virus 1; assay: Antiviral activity against HIV1; format: functional, organism-based
HEp-2 = assay: Cytotoxicity against human Hep2 cells assessed as reduction in cell viability incubated for 72 hrs by MTT assay; format: functional, cell-based; settings: HEp-2, 72 h
HCT-116 [2] = assay: Cytotoxicity against human HCT116 cells assessed as reduction in cell viability incubated for 72 hrs by MTT assay; format: functional, cell-based; settings: HCT-116, 72 h
[3] = Cytotoxicity against human MS cells assessed as reduction in cell viability incubated for 72 hrs by MTT assay; format: functional, cell-based
RD = assay: Cytotoxicity against human TE32 cells assessed as reduction in cell viability incubated for 72 hrs by MTT assay; format: functional, cell-based
A549 = assay: Cytotoxicity against human A549 cells assessed as reduction in cell viability incubated for 72 hrs by MTT assay; format: functional, cell-based; settings: A549, 72 h
HL-60 = assay: Growth inhibition of human HL60 cells; format: functional
HEK293 = assay: Cytotoxicity against HEK293 cells assessed as reduction in cell viability incubated for 72 hrs by MTT assay; format: cell-based; settings: Homo sapiens, HEK293, 72 h
Human alphaherpesvirus 1 = assay: Antiviral activity against HSV1; format: functional, organism-based
HCT-116 [4] = assay: Induction of apoptosis in human HCT116 cells assessed as viable cells level at 2 uM incubated for 16 hrs by Annexin V-FICT/PI staining based flow cytometry (reference value: 91.36%); format: functional
HCT-116 [5] = assay: Induction of apoptosis in human HCT116 cells assessed as early apoptotic cells level at 2 uM incubated for 16 hrs by Annexin V-FICT/PI staining based flow cytometry (reference value: 4.47%); format: functional
HCT-116 [6] = assay: Induction of apoptosis in human HCT116 cells assessed as late apoptotic cells level at 2 uM incubated for 16 hrs by Annexin V-FICT/PI staining based flow cytometry (reference value: 2.51%); format: functional
HCT-116 [7] = assay: Induction of apoptosis in human HCT116 cells assessed as necrotic cells level at 2 uM incubated for 16 hrs by Annexin V-FICT/PI staining based flow cytometry (reference value: 1.67%); format: functional
HCT-116 [8] = assay: Induction of apoptosis in human HCT116 cells assessed as increase in mitochondrial membrane depolarization at 2 uM incubated for 18 hrs by rhodamine 123 staining based fluorescent inverted microscopy (reference value: 8%); format: functional
HCT-116 [9] = assay: Induction of apoptosis in human HCT116 cells assessed as increase in mitochondrial membrane depolarization at 10 uM incubated for 18 hrs by rhodamine 123 staining based fluorescent inverted microscopy (reference value: 8%); format: functional
[10] = Selectivity index, ratio of IC50 for HEK293 cells to IC50 for human HCT116 cells; format: toxicity; settings: HEK293 cells versus HCT116 cells, read-out: Ratio IC50
[11] = Selectivity index, ratio of IC50 for HEK293 cells to IC50 for human Hep2 cells; format: toxicity; settings: HEK293 cells versus Hep2 cells, read-out: Ratio IC50
[12] = Selectivity index, ratio of IC50 for HEK293 cells to IC50 for human TE32 cells; format: toxicity; settings: HEK293 cells versus TE32 cells, read-out: Ratio IC50
[13] = Selectivity index, ratio of IC50 for HEK293 cells to IC50 for human MS cells; format: toxicity; settings: HEK293 cells versus MS cells, read-out: Ratio IC50
HCT-116 [14] = assay: Induction of apoptosis in human HCT116 cells assessed as viable cells level at 10 uM incubated for 16 hrs by Annexin V-FICT/PI staining based flow cytometry (reference value: 91.36%); format: functional
HCT-116 [15] = assay: Induction of apoptosis in human HCT116 cells assessed as early apoptotic cells level at 10 uM incubated for 16 hrs by Annexin V-FICT/PI staining based flow cytometry (reference value: 4.47%); format: functional
HCT-116 [16] = assay: Induction of apoptosis in human HCT116 cells assessed as late apoptotic cells level at 10 uM incubated for 16 hrs by Annexin V-FICT/PI staining based flow cytometry (reference value: 2.51%); format: functional
HCT-116 [17] = assay: Induction of apoptosis in human HCT116 cells assessed as necrotic cells level at 10 uM incubated for 16 hrs by Annexin V-FICT/PI staining based flow cytometry (reference value: 1.67%); format: functional
HCT-116 [18] = assay: Induction of apoptosis in human HCT116 cells assessed as increase in chromatin condensation at 10 uM incubated for 18 hrs by Hoechst 33258 staining based fluorescent inverted microscopy; format: functional
HCT-116 [19] = assay: Induction of apoptosis in human HCT116 cells assessed as increase in caspase-8 activity at 10 uM after 12 hrs by fluorimetric assay; format: functional, cell-based
HCT-116 [20] = assay: Induction of apoptosis in human HCT116 cells assessed as increase in caspase-3/7 activity at 10 uM after 18 hrs by fluorimetric assay; format: functional, cell-based
HCT-116 [21] = assay: Induction of apoptosis in human HCT116 cells assessed as increase in caspase-3/7 activity at 10 uM after 24 hrs by fluorimetric assay; format: functional, cell-based
HCT-116 [22] = assay: Induction of apoptosis in human HCT116 cells assessed as increase in cck18 level at 10 uM after 18 hrs by fluorimetric assay; format: functional, cell-based
HCT-116 [23] = assay: Cytotoxicity against human HCT116 cells assessed as reduction in cell viability at 10 uM incubated for 12 to 72 hrs by MTT assay; format: functional, cell-based; settings: TDE = time-dependent effect

Row | SMILES | IC50 (HEp-2) | IC50 (HCT-116 [2]) | IC50 [3] | IC50 (RD) | IC50 (A549) | also measured
1 | C=C(C)[C@@H]1CC[C@]2(C(=O)OC)CC[C@]3(C)[C@H](CC[C@@H]4[C@@](C)(CC#N)[C@H](C(C)(C)C(C)=O)CC[C@]43C)[C@@H]12 | > 100 µM | > 100 µM | > 100 µM | > 100 µM | > 100 µM | EC50 [1]: 39.9 µg/mL (≈ 80.5 µM)
2 | CC1(C)CC[C@]23CC[C@]4(C)[C@H](CC[C@@H]5[C@@]6(C)C/C(=N\O)[C@](C)(O)C(C)(C)[C@@H]6CC[C@]54C)[C@H]2[C@H]1OC3 | 85.4 µM | > 100 µM | 87.3 µM | 33.7 µM | > 100 µM | –
3 | C=C(C)[C@@H]1CC[C@]2(C(=O)O)CC[C@]3(C)[C@H](CC[C@@H]4[C@@]5(C)[C@H](C(=O)O)[C@H](O)C(C)(C)[C@@H]5CC[C@]43C)[C@@H]12 [EPICEANOTHIC ACID] | – | – | – | – | – | EC50 [1]: < 0.064 µg/mL
4 | C=C(C)[C@@H]1CC=C2[C@@H](CC[C@]3(C)[C@@H]([C@H](C)CC(=O)CC(C)C)CC[C@@]23C)[C@@]1(C)CCC(=O)O | – | – | – | – | – | GI50 (HL-60): 6.8 µM
5 | C=C(C)[C@@H]1CC[C@]2(C(=O)OC)CC[C@]3(C)[C@H](CC[C@@H]4[C@@]5(C)C/C(=N\O)[C@](C)(O)C(C)(C)[C@@H]5CC[C@]43C)[C@@H]12 | 71 µM | > 100 µM | 23.5 µM | 29 µM | 55.4 µM | –
6 | C=C(C=O)[C@@H]1CC[C@]2(C(=O)OC)CC[C@]3(C)[C@H](CC[C@@H]4[C@@](C)(CC#N)[C@H](C(C)(C)C(C)=O)CC[C@]43C)[C@@H]12 | 52.1 µM | 7.3 µM | 5.48 µM | 5.04 µM | 15.4 µM | IC50 (HEK293): 6 µM
7 | C[C@@H](O)C(C)(C)[C@@H]1CC[C@]2(C)[C@H](CC[C@@H]3[C@H]4[C@H]5OC[C@@]4(CCC5(C)C)CC[C@]32C)[C@@]1(C)CC#N | > 100 µM | > 100 µM | 83.3 µM | 96.5 µM | > 200 µM | –
8 | C=C(C=O)[C@@H]1CC[C@]2(C(=O)OC)CC[C@]3(C)[C@H](CC[C@@H]4[C@@]5(C)C(C#N)=C(C)C(C)(C)[C@@H]5CC[C@]43C)[C@@H]12 | 17.4 µM | 7.09 µM | 8.59 µM | 21.8 µM | 36 µM | –
9 | CC1(C)CC[C@]23CC[C@]4(C)[C@H](CC[C@@H]5[C@@]6(C)C(C#N)=C(CO)C(C)(C)[C@@H]6CC[C@]54C)[C@H]2[C@H]1OC3 | > 100 µM | > 100 µM | > 100 µM | > 100 µM | 57.8 µM | –
10 | C=C(C=O)[C@@H]1CC[C@]2(C(=O)OC)CC[C@]3(C)[C@H](CC[C@@H]4[C@@](C)(CC#N)[C@H](C(C)(C)C(=O)C(Br)Br)CC[C@]43C)[C@@H]12 | > 100 µM | 26.3 µM | 6.27 µM | 6.96 µM | > 100 µM | –
11 | C=C(C)[C@@H]1CC[C@]2(C(=O)OC)CC[C@]3(C)[C@H](CC[C@@H]4[C@@](C)(CC#N)[C@H](C(C)(C)[C@@H](C)O)CC[C@]43C)[C@@H]12 | 43.8 µM | 31.7 µM | 15.1 µM | 20.2 µM | 19.1 µM | –
12 | CC(=O)O[C@H](C)C(C)(C)[C@@H]1CC[C@]2(C)[C@H](CC[C@@H]3[C@H]4[C@H]5OC[C@@]4(CCC5(C)C)CC[C@]32C)[C@@]1(C)CC#N | > 100 µM | 65.3 µM | 21.3 µM | 31.9 µM | 45.7 µM | –
13 | CC1(C)CC[C@]23CC[C@]4(C)[C@H](CC[C@@H]5[C@@](C)(CC#N)[C@H](C(C)(C)C(=O)CBr)CC[C@]54C)[C@H]2[C@H]1OC3 | > 100 µM | > 100 µM | > 100 µM | 52.9 µM | > 100 µM | –
14 | CC(=O)C(C)(C)[C@@H]1CC[C@]2(C)[C@H](CC[C@@H]3[C@H]4[C@H]5OC[C@@]4(CCC5(C)C)CC[C@]32C)[C@@]1(C)CC#N | > 100 µM | > 100 µM | > 100 µM | > 100 µM | > 100 µM | EC50 [1]: 7.2 µg/mL (≈ 15.4 µM); EC50 (Human alphaherpesvirus 1): 21.1 µg/mL (≈ 45.1 µM)
15 | CC[C@@]1(O)C(=O)OCc2c1cc1n(c2=O)Cc2cc3ccccc3nc2-1 [CAMPTOTHECIN] | 3.04 µM | 1.88 µM | 1.84 µM | – | – | Activity (HCT-116 [4]): 80.88%; Activity (HCT-116 [5]): 12.44%; Activity (HCT-116 [6]): 5.07%; Activity (HCT-116 [7]): 1.6%; Activity (HCT-116 [8]): -30%
16 | CC1(C)CC[C@]23CC[C@]4(C)[C@H](CC[C@@H]5[C@@](C)(CC#N)[C@H](C(C)(C)C(=O)C(Br)Br)CC[C@]54C)[C@H]2[C@H]1OC3 | > 100 µM | > 100 µM | > 100 µM | > 100 µM | > 100 µM | –
17 | COC(=O)[C@]12CC[C@@H](C(C)=O)[C@@H]1[C@H]1CC[C@@H]3[C@@](C)(CC#N)[C@H](C(C)(C)C(C)=O)CC[C@@]3(C)[C@]1(C)CC2 | > 100 µM | > 100 µM | > 100 µM | > 100 µM | > 100 µM | –
18 | C=C(C)[C@@H]1CC[C@]2(C(=O)OC)CC[C@]3(C)[C@H](CC[C@@H]4[C@@](C)(CC#N)[C@H](C(C)(C)[C@@H](C)OC(C)=O)CC[C@]43C)[C@@H]12 | > 100 µM | > 100 µM | 96.9 µM | 42.5 µM | 92.7 µM | –
19 | COC(=O)[C@]12CC[C@@H](C(C)=O)[C@@H]1[C@H]1CC[C@@H]3[C@@]4(C)C(C#N)=C(C)C(C)(C)[C@@H]4CC[C@@]3(C)[C@]1(C)CC2 | > 100 µM | > 100 µM | > 100 µM | > 100 µM | > 100 µM | –
20 | C=C(C=O)[C@@H]1CC[C@]2(C(=O)OC)CC[C@]3(C)[C@H](CC[C@@H]4[C@@](C)(CC#N)[C@H](C(C)(C)C(=O)CBr)CC[C@]43C)[C@@H]12 | 5.28 µM | 10.3 µM | 3.41 µM | 3.84 µM | 25.4 µM | Activity (HCT-116 [9]): 11.6%; IC50 (HEK293): 92.3 µM; selectivity ratio [10]: 8.9; selectivity ratio [11]: 17.4; selectivity ratio [12]: 24.3; selectivity ratio [13]: 27.2; Activity (HCT-116 [14]): 59.86%; Activity (HCT-116 [15]): 25.61%; Activity (HCT-116 [16]): 10.07%; Activity (HCT-116 [17]): 4.46%; Activity (HCT-116 [18]): 28.3%; Activity (HCT-116 [19]): Active; Activity (HCT-116 [20]): Active; Activity (HCT-116 [21]): Active; Activity (HCT-116 [22]): Active; Activity (HCT-116 [23]): Tde
